Source: PMC12631873 (Advanced Science, 2025)
Square brackets hold non-standard residues; d marks the D form. Peptide text beside a SMILES is read from it. * marks the point of attachment. X1 = CN1/C(=C/C=C/C=C/C2=[N+](CCCCCC(=O)*)c3ccc(S(=O)(=O)[O-])cc3C2(C)C)C(C)(C)c2cc(S(=O)(=O)O)ccc21; Hyp = O=C(O)[C@@H]1C[C@@H](O)CN1; Nlys = NCCCCNCC(=O)O; Ahx = NCCCCCC(=O)O

How the values were obtained:
[1] = 25% v/v mouse serum (Biosharp, BL1053A diluted in 1× PBS); settings: 37 °C, up to 48 h
cartilage = assay: In vivo and ex vivo fluorescence imaging of cartilage uptake and retention in nude mice; parameters: species or system mouse; settings: 1 nmol i.v., 0-96 h
Description: All procedures for mouse maintenance and experiments strictly followed the policy of the Experimental Animal Ethics Committee of the Fifth Affiliated Hospital of Sun Yat‐sen University (protocol numbers: 00361, 00436). Balb/c nu mice (male, 10‐18 weeks old) were used for the general in vivo imaging experiments (Figure 3c–f; Figures S10–S14, Supporting Information). For Figure 3g,h and Figure S16 (Supporting Information), neonatal Balb/c mice (7 days old) were used. Female Balb/c mice (74 weeks old versus 12 weeks old) were used in the aged joint imaging experiment reported in Figure 4a–c and Figure S17 (Supporting Information). The RA model was made using female Balb/c mice (6‐8 weeks old) by intraperitoneal injection of an anti‐collagen antibody cocktail (1.5 mg per mouse; Chondrex, 53100) followed by selective subcutaneous injection of lipopolysaccharide (LPS, 12.5 µg per mouse, Chondrex, 53100) into the left hind paw three days later.^[ [30] ^] C57BL/6J mice (male, 6–8 weeks old) were used for the biocompatibility tests (Figures S23–S25, Supporting Information).
(§1) Typically, the fluorescence peptides or peptoids were prepared at a dose of 1 nmol (10 µM in 100 µL of 1× PBS buffer) and injected into the tail vein of each mouse 2 h prior to fluorescence imaging with an IVIS Spectrum imager (PerkinElmer Lumina III). For Figure 4, Figures S17 and S18 (Supporting Information) (joint aging and RA) and Figure S27 (Supporting Information), 2 nmol of Cy5‐(NlysO)7 (20 µM in 100 µL of 1× PBS buffer) were i.v. administered to each mouse. For 1‐week‐old neonatal mice, 1 nmol of Cy5‐(NlysO)7 (20 µM in 50 µL of 1× PBS buffer) was intravenously injected into each mouse. All in vivo imaging was performed 2 h post probe injection with the IVIS Spectrum imager (PerkinElmer, fluorescence: ex/em: 620/670 nm, exposure: 1 s, bing: 4, F/Stop: 2; field of view: A/B/C/Z). Mice were anesthesia with 3% isoflurane (RWD, R510‐22‐10) during image acquisition. Hair in the knee areas was removed before fluorescence imaging for mice in Figure 4a and Figure S17 (Supporting Information). The mice were euthanized following the final image acquisition and occasionally imaged again after skin and organ removal. Next, the airways, ankles, ears, paws, knees, tails, spines, and chest ribs were collected, imaged, and saved for subsequent histology analysis. All acquired fluorescence images were analyzed using the Living Image software (PerkinElmer). The fluorescence signal from each specimen was measured by quantifying the average radiation efficiency within the selected oval‐shaped regions‐of‐interest.
For the cartilage retention experiments (Figures S11 and S12, Supporting Information), Cy5‐(NlysO)7 (10 µM in 100 µL of 1× PBS buffer) was administered via tail vein to four male Balb/c nu mice (10 weeks old) at 2, 24, 48, and 96 h respectively, prior to fluorescence imaging using an IVIS Spectrum imaging system (ex/em: 620/670 nm, exposure: 1 s, bing: 4, F/Stop: 2). Following euthanasia, their cartilaginous tissues were harvested and imaged. The fluorescence images were analyzed and quantified as described above.

[2] = Organ fluorescence 2 h post-injection (clearance route); assay type: in vivo, mouse; settings: nude mice, organs isolated 2 h post i.v. injection of 1 nmol
Description: as §1

[3] = Routine (whole) blood tests after repeated dosing; assay type: in vivo, mouse; settings: C57BL/6J mice, 3 weekly i.v. doses of 2 nmol over 14 days, n = 5
Description: Whole blood tests: Each C57BL/6J mouse (6–8 weeks old) was intravenously injected with 100 µL of PBS buffer or with each peptide or peptoid probe (2 nmol in 100 µL 1× PBS buffer per mouse) on days 0, 7, and 14. The mice were sacrificed on day 15, 24 h after the final injection. The heart, liver, spleen, lungs, and kidneys were collected from each mouse and processed into formalin‐fixed paraffin‐embedded sections for histological evaluation with H&E staining. Whole blood was collected. Both H&E and blood sample analyses were performed by Wuhan Servicebio.

[4] = Serum stability test (HPLC); assay type: in vitro ADME, mouse; settings: 37 °C; for degradation in serum (in words): 25% v/v mouse serum, 24 h and even after 48 h; for degradation in serum (in words) / metabolised at 24 h: HPLC UV 646 nm; for degradation in serum (in words) / HPLC chromatogram after 48 h of serum incubation / metabolised at 24 h: n = 3; for HPLC peak shape and elution time after 24 h of serum incubation: mouse serum; for HPLC peak shape and elution time after 24 h of serum incubation / HPLC chromatogram after 48 h of serum incubation: HPLC 646 nm; for HPLC chromatogram after 48 h of serum incubation: 25% mouse serum, 48 h vs 10 min; for metabolised at 24 h: 25% v/v mouse serum in 1× PBS, 10 nmol probe, peak area normalized to 10 min, read-out: percent of the peptides proteolyzed after 24 h of serum incubation
Description: Cy5‐labeled peptidomimetic probes (10 nmol) were incubated in 25% v/v mouse serum (Biosharp, BL1053A diluted in 1× PBS) at 37 °C. Aliquots (200 µL) were taken periodically at 0 (deadtime: ≈10 min), 2, 24, and 48 h, and added to 400 µL of 3.75% trichloroacetic acid in acetonitrile at 4 °C. Then, all samples were centrifuged to remove the precipitated serum proteins at 13800 g for 10 min at 4 °C. The supernatant (150 µL) was taken to mix with 550 µL of water (with 0.1% TFA) to centrifuge again at 2630 g for 5 min at 4 °C. Five microliter of the supernatant was mixed with 200 µL of water containing 0.1% TFA as the final samples for HPLC analysis at room temperature monitored by absorbance at 646 nm with the integral area of the intact fraction recorded. The peak area for the 10 min time point was designated as 100% intact, and each peak area at successive time points was normalized to the 10 min peak to calculate the percent compound remaining. All the experiments were repeated three times.

Row | Compound | serum stability (degradation in mouse serum) [1] | in vivo retention in joints and ribs compared to peptide sequences Cy5-(GKO)7 and Cy5-R8 (cartilage) | clearance route from organ fluorescence [2] | routine blood analyses vs PBS control group [3] | HPLC peak shape and elution time after 24 h of serum incubation [4] | further results
1 | Cy5‐Nlys7 | No significant changes in peak shape and elution time even post 48 h | – | – | – | – | –
2 | CN1/C(=C/C=C/C=C/C2=[N+](CCCCCC(=O)NCCCCCC(=O)NCC(=O)N(CCCCN)CC(=O)NCC(=O)N(CCCCN)CC(=O)NCC(=O)N(CCCCN)CC(=O)NCC(=O)N(CCCCN)CC(=O)NCC(=O)N(CCCCN)CC(=O)NCC(=O)N(CCCCN)CC(=O)NCC(=O)N(CCCCN)CC(N)=O)c3ccc(S(=O)(=O)[O-])cc3C2(C)C)C(C)(C)c2cc(S(=O)(=O)O)ccc21 [Cy5‐(GNlys)7] ({X1-Ahx}-G[Nlys]G[Nlys]G[Nlys]G[Nlys]G[Nlys]G[Nlys]G[Nlys]-NH2) | – | stronger retention in the joints and ribs in vivo | may be cleared by the ki dneys and liver | None of the measurements | No significant changes in peak shape and elusion time were noted | degradation in serum (in words) [4]: hardly degraded
3 | CN1/C(=C/C=C/C=C/C2=[N+](CCCCCC(=O)NCCCCCC(=O)NCC(=O)N3C[C@H](O)C[C@H]3C(=O)NCC(=O)N3C[C@H](O)C[C@H]3C(=O)NCC(=O)N3C[C@H](O)C[C@H]3C(=O)NCC(=O)N3C[C@H](O)C[C@H]3C(=O)NCC(=O)N3C[C@H](O)C[C@H]3C(=O)NCC(=O)N3C[C@H](O)C[C@H]3C(=O)NCC(=O)N3C[C@H](O)C[C@H]3C(N)=O)c3ccc(S(=O)(=O)[O-])cc3C2(C)C)C(C)(C)c2cc(S(=O)(=O)O)ccc21 [Cy5‐(GO)7] ({X1-Ahx}-G[Hyp]G[Hyp]G[Hyp]G[Hyp]G[Hyp]G[Hyp]G[Hyp]-NH2) | – | – | – | – | – | HPLC chromatogram after 48 h of serum incubation [4]: showed prominent peaks from peptide proteolysis; metabolised at 24 h [4]: ~25%
4 | Cy5‐(GNlysO)7 | hardly degraded in the serum even after 48 h | – | – | – | – | –
5 | CN1/C(=C/C=C/C=C/C2=[N+](CCCCCC(=O)NCCCCCC(=O)NCC(=O)N(CCCCN)CC(=O)N3C[C@H](O)C[C@H]3C(=O)NCC(=O)N(CCCCN)CC(=O)N3C[C@H](O)C[C@H]3C(=O)NCC(=O)N(CCCCN)CC(=O)N3C[C@H](O)C[C@H]3C(=O)NCC(=O)N(CCCCN)CC(=O)N3C[C@H](O)C[C@H]3C(=O)NCC(=O)N(CCCCN)CC(=O)N3C[C@H](O)C[C@H]3C(=O)NCC(=O)N(CCCCN)CC(=O)N3C[C@H](O)C[C@H]3C(=O)NCC(=O)N(CCCCN)CC(=O)N3C[C@H](O)C[C@H]3C(N)=O)c3ccc(S(=O)(=O)[O-])cc3C2(C)C)C(C)(C)c2cc(S(=O)(=O)O)ccc21 [Cy5‐(GNlysO)7] ({X1-Ahx}-G[Nlys][Hyp]G[Nlys][Hyp]G[Nlys][Hyp]G[Nlys][Hyp]G[Nlys][Hyp]G[Nlys][Hyp]G[Nlys][Hyp]-NH2) | – | stronger retention in the joints and ribs in vivo | might be mainly cleared through kidneys | None of the measurements | No significant changes in peak shape and elusion time were noted | degradation in serum (in words) [4]: hardly degraded
6 | Cy5‐(GNlys)7 | hardly degraded in the serum even after 48 h | – | – | – | – | –
7 | CN1/C(=C/C=C/C=C/C2=[N+](CCCCCC(=O)NCCCCCC(=O)NCC(=O)N[C@@H](CCCCN)C(=O)N3C[C@H](O)C[C@H]3C(=O)NCC(=O)N[C@@H](CCCCN)C(=O)N3C[C@H](O)C[C@H]3C(=O)NCC(=O)N[C@@H](CCCCN)C(=O)N3C[C@H](O)C[C@H]3C(=O)NCC(=O)N[C@@H](CCCCN)C(=O)N3C[C@H](O)C[C@H]3C(=O)NCC(=O)N[C@@H](CCCCN)C(=O)N3C[C@H](O)C[C@H]3C(=O)NCC(=O)N[C@@H](CCCCN)C(=O)N3C[C@H](O)C[C@H]3C(=O)NCC(=O)N[C@@H](CCCCN)C(=O)N3C[C@H](O)C[C@H]3C(N)=O)c3ccc(S(=O)(=O)[O-])cc3C2(C)C)C(C)(C)c2cc(S(=O)(=O)O)ccc21 [Cy5‐(GKO)7] ({X1-Ahx}-GK[Hyp]GK[Hyp]GK[Hyp]GK[Hyp]GK[Hyp]GK[Hyp]GK[Hyp]-NH2) | – | – | might be mainly cleared through kidneys | – | – | HPLC chromatogram after 48 h of serum incubation [4]: showed prominent peaks from peptide proteolysis; metabolised at 24 h [4]: ~25%
8 | Cy5‐(NlysO)7 | hardly degraded in the serum even after 48 h | – | – | – | – | –
9 | CN1/C(=C/C=C/C=C/C2=[N+](CCCCCC(=O)NCCCCCC(=O)N(CCCCN)CC(=O)N(CCCCN)CC(=O)N(CCCCN)CC(=O)N(CCCCN)CC(=O)N(CCCCN)CC(=O)N(CCCCN)CC(=O)N(CCCCN)CC(N)=O)c3ccc(S(=O)(=O)[O-])cc3C2(C)C)C(C)(C)c2cc(S(=O)(=O)O)ccc21 [Cy5‐Nlys7] ({X1-Ahx}-[Nlys][Nlys][Nlys][Nlys][Nlys][Nlys][Nlys]-NH2) | – | stronger retention in the joints and ribs in vivo | may be cleared by the ki dneys and liver | None of the measurements | No significant changes in peak shape and elusion time were noted | –
